In patent US11944622B2 (Annapurna Bio, Inc., priority 2018, dated 2024):

molecular target: T1, APJ Receptor (Homo sapiens, UniProt P35414); test: APJ cAMP assay (DiscoverX enzyme fragment complementation; inhibition of forskolin-stimulated cAMP); format: cell-based; details: CHO-K1 cell line stably expressing the APJ Receptor; EC80 forskolin; 30 minutes at 37° C.; read-out: Potency Range (APJ cAMP EC50)
T1 sequence (P35414 1-380): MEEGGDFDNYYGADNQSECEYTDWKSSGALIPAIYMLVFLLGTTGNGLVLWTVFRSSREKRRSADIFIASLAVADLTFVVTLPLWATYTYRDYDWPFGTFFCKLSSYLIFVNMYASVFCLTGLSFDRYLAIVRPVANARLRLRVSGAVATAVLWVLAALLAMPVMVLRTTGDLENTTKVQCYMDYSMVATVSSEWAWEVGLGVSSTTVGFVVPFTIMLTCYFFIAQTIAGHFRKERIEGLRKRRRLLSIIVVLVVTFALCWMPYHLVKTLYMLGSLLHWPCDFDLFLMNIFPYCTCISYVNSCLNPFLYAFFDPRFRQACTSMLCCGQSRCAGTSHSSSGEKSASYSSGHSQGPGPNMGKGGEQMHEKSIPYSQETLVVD
Text: Activation of APJ receptor is known to inhibit forskolin-stimulated cyclic AMP (cAMP) production in cells in a pertussis toxin-sensitive manner which indicates primary coupling to the GαI subunit of the G protein heterotrimeric complex. In addition to signaling through G protein and inhibition of cAMP, APJ receptor activation also results in β-arrestin recruitment, receptor internalization and activation of extracellular-regulated kinases (ERKs).
In order to optimize functional activity directed toward Gi coupling we utilized a CHO-K 1 cell line developed by DiscoverX stably expressing the APJ Receptor. Cells expressing APJR receptor were plated in a 384-well microtiter plates and incubated overnight at 37° C. with 5% CO2 to allow the cells to attach and grow. Media was then aspirated from the cells and replaced with 15 uL 2:1 Hanks Balanced Salt Solution (HBSS)/10 mM Hepes:cAMP XS+Ab reagent. Five microliters (5 uL) of previously generated compound sample stocks at 4× final concentration in assay buffer containing 4× EC80 forskolin were then added to the cells and allowed to incubate at 37° C. for 30 minutes.
After incubation the assay signal was generated using a technology termed enzyme fragment complementation (EFC). In EFC the enzyme B-galactosidase is split into two complementary portions (EA and ED). The fragment ED is fused to cAMP and in the assay format competes with endogenous cAMP for binding to a cAMP specific antibody. Activated B-Gal is formed when exogenous EA fragment binds to free ED-cAMP (not bound to cAMP specific antibody). Activated enzyme levels are detected through conversion of B-gal chemiluminescent substrate which generates a detectable luminescence signal and read on standard microtiter plate.
The methodology for detection of cAMP using EFC requires incubation with 20 uL of cAMP XS+ED/CL lysis cocktail for one hour followed by incubation with 20 uL cAMP XS+EA reagent for three hours at room temperature. Microplates were read following signal generation with a PerkinElmer Envision instrument utilizing chemiluminescent signal detection.
Compound activity was analyzed using CBIS data analysis suite (ChemInnovation, CA). Percentage activity was calculated using the following formula: % Activity=100%×(1−(mean RLU of test sample−mean RLU of Max control)/(mean RLU of vehicle control−mean RLU of Max control))

Row | Compound | EC50 [nM]
1 | CCOc1cccc(-c2nc3nc(CCC4CC4)c(NS(C)(=O)=O)nc3n2-c2c(OC)cccc2OC)n1 [Example 66, N-(5-(2-cyclopropylethyl)-1-(2,6-dimethoxyphenyl)-2-(6-ethoxypyridin-2-yl)-1H-imidazo[4,5-b]pyrazin-6-yl)methanesulfonamide] | < 1
2 | CCOc1cccc(-c2nc3nc(Cl)c(NS(=O)(=O)CC4(O)CC4)nc3n2-c2c(OC)cccc2OC)n1 [Example 113, N-(5-Chloro-1-(2,6-dimethoxyphenyl)-2-(6-ethoxypyridin-2-yl)-1H-imidazo[4,5-b]pyrazin-6-yl)-1-(1-hydroxycyclopropyl)methanesulfonamide] | 1 to 100
3 | CCOc1cccc(-c2nc3ncc(NS(=O)(=O)Cc4ccccn4)nc3n2-c2c(OC)cccc2OC)n1 [Example 27, N-(1-(2,6-dimethoxyphenyl)-2-(6-ethoxypyridin-2-yl)-1H-imidazo[4,5-b]pyrazin-6-yl)-1-(pyridin-2-yl)methanesulfonamide] | 1 to 100
4 | CCOc1cccc(-c2nc3ncc(NS(=O)(=O)N4CCCCC4)nc3n2-c2c(OC)cccc2OC)n1 [Example 75, N-(1-(2,6-dimethoxyphenyl)-2-(6-ethoxypyridin-2-yl)-1H-imidazo[4,5-b]pyrazin-6-yl)piperidine-1-sulfonamide] | < 1
5 | CCOc1cccc(-c2nc3nc(Cl)c(NS(=O)(=O)C4CC4)nc3n2-c2c(OC)cccc2OC)n1 [Example 97, N-(5-Chloro-1-(2,6-dimethoxyphenyl)-2-(6-ethoxypyridin-2-yl)-1H-imidazo[4,5-b]pyrazin-6-yl)cyclopropanesulfonamide] | 1 to 100
6 | CCOc1cccc(-c2nc3nnc(NS(=O)(=O)Cc4ncc(Cl)cn4)cc3n2-c2c(OC)cccc2OC)n1 [Example 144, 1-(5-Chloropyrimidin-2-yl)-N-(7-(2,6-dimethoxyphenyl)-8-(6-ethoxypyridin-2-yl)-7H-imidazo[4,5-c]pyridazinyl)methanesulfonamide] | < 1
7 | CCOc1cccc(-c2nc3ncc(NS(=O)(=O)c4cccnc4)nc3n2-c2c(OC)cccc2OC)n1 [Example 24, N-(1-(2,6-dimethoxyphenyl)-2-(6-ethoxypyridin-2-yl)-1H-imidazo[4,5-b]pyrazin-6-yl)pyridine-3-sulfonamide] | 1 to 100
8 | CCOc1cccc(-c2nc3ncc(NS(=O)(=O)Cc4cncnc4)nc3n2-c2c(OC)cccc2OC)n1 [Example 35, N-(1-(2,6-dimethoxyphenyl)-2-(6-ethoxypyridin-2-yl)-1H-imidazo[4,5-b]pyrazin-6-yl)-1-(pyrimidin-5-yl)methanesulfonamide] | 1 to 100
9 | CCOc1cccc(-c2nc3ncc(NS(=O)(=O)[C@H]4CC[C@@H](O)CC4)nc3n2-c2c(OC)cccc2OC)n1 [Example 40, cis-N-(1-(2,6-dimethoxyphenyl)-2-(6-ethoxypyridin-2-yl)-1H-imidazo[4,5-b]pyrazin-6-yl)-4-hydroxycyclohexane-1-sulfonamide] | 1 to 100
10 | CCOc1cccc(-c2nc3nc(NS(=O)(=O)CCC4CC4)cnc3n2-c2c(OC)cccc2OC)n1 [Example 44] | < 1
11 | CCOc1cccc(-c2nc3ncc(CCc4ccccc4)nc3n2-c2c(OC)cccc2OC)n1 [Example 7, 1-(2,6-dimethoxyphenyl)-2-(6-ethoxypyridin-2-yl)-6-phenethyl-1H-imidazo[4,5-b]pyrazine] | 1 to 100
12 | CCOc1cccc(-c2nc3nc(CC4CC4)c(NS(C)(=O)=O)nc3n2-c2c(OC)cccc2OC)n1 [Example 65, N-(5-(cyclopropylmethyl)-1-(2,6-dimethoxyphenyl)-2-(6-ethoxypyridin-2-yl)-1H-imidazo[4,5-b]pyrazin-6-yl)methanesulfonamide] | < 1

Other lines, results leading:

Row | EC50 [nM] | Compound
13 | 100 to 10000 | CCOc1cccc(-c2nc3ncc(NS(C)(=O)=O)nc3n2-c2c(OC)ccnc2OC)n1 (atropisomer, axis not shown) [Example 85, N-(1-(2,4-Dimethoxypyridin-3-yl)-2-(6-ethoxypyridin-2-yl)-1H-imidazo[4,5-b]pyrazin-6-yl)methanesulfonamide]
14 | 1 to 100 | CCOc1cccc(-c2nc3nc(CO)c(NS(C)(=O)=O)nc3n2-c2c(OC)cccc2OC)n1 [Example 140, N-(1-(2,6-Dimethoxyphenyl)-2-(6-ethoxypyridin-2-yl)-5-(hydroxymethyl)-1H-imidazo[4,5-b]pyrazin-6-yl)methanesulfonamide]
15 | 1 to 100 | CCOc1cccc(-c2nc3ncc(NS(=O)(=O)C[C@H]4C[C@](C)(O)C4)nc3n2-c2c(OC)cccc2OC)n1 [Example 81, trans-N-(1-(2,6-Dimethoxyphenyl)-2-(6-ethoxypyridin-2-yl)-1H-imidazo[4,5-b]pyrazin-6-yl)-1-((1r,3r)-3-hydroxy-3-methylcyclobutyl)methanesulfonamide]
16 | 1 to 100 | CCOc1cccc(-c2nc3ncc(NS(=O)(=O)CCC(C)(C)O)nc3n2-c2c(OC)cccc2OC)n1 [Example 60, N-(1-(2,6-dimethoxyphenyl)-2-(6-ethoxypyridin-2-yl)-1H-imidazo[4,5-b]pyrazin-6-yl)-3-hydroxy-3-methylbutane-1-sulfonamide]
17 | 1 to 100 | CCOc1cccc(-c2nc3nc(NS(C)(=O)=O)c(Cl)nc3n2-c2c(OC)cccc2OC)n1 [Example 138, N-(6-Chloro-1-(2,6-dimethoxyphenyl)-2-(6-ethoxypyridin-2-yl)-1H-imidazo[4,5-b]pyrazin-5-yl)methanesulfonamide]
18 | < 1 | CCOc1cccc(-c2nc3ncc(NS(=O)(=O)Cc4ncc(C)cn4)nc3n2-c2c(OC)cccc2OC)n1 [Example 80, N-(1-(2,6-dimethoxyphenyl)-2-(6-ethoxypyridin-2-yl)-1H-imidazo[4,5-b]pyrazin-6-yl)-1-(5-methylpyrimidin-2-yl)methanesulfonamide]
19 | 1 to 100 | CCOc1cccc(-c2nc3ncc(NS(C)(=O)=O)nc3n2C(CC)CC)n1 [Example 58, N-(2-(6-ethoxypyridin-2-yl)-1-(pentan-3-yl)-1H-imidazo[4,5-b]pyrazin-6-yl)methanesulfonamide]
20 | 1 to 100 | CCOc1cccc(-c2nc3ncc(NS(=O)(=O)CC(C)(C)O)nc3n2-c2c(OC)cccc2OC)n1 [Example 70]
21 | 100 to 10000 | COc1cccc(OC)c1-n1c(-c2cccc(OC(F)(F)F)n2)nc2ncc(NS(C)(=O)=O)nc21 [Example 56, N-(1-(2,6-dimethoxyphenyl)-2-(6-(trifluoromethoxy)pyridin-2-yl)-1H-imidazo[4,5-b]pyrazin-6-yl)methanesulfonamide]
22 | 1 to 100 | CCOc1cccc(-c2nc3ncc(NS(C)(=O)=O)nc3n2-c2c(OC)cccc2C(F)(F)F)n1 [Example 48, N-(2-(6-ethoxypyridin-2-yl)-1-(2-methoxy-6-(trifluoromethyl)phenyl)-1H-imidazo[4,5-b]pyrazin-6-yl)methanesulfonamide]
23 | 1 to 100 | CCOc1cccc(-c2nc3nc(C)c(NS(C)(=O)=O)nc3n2-c2c(OC)cccc2OC)n1 [Example 87, N-(1-(2,6-Dimethoxyphenyl)-2-(6-ethoxypyridin-2-yl)-5-methyl-1H-imidazo[4,5-b]pyrazin-6-yl)methanesulfonamide]
24 | 1 to 100 | COc1cccc(OC)c1-n1c(-c2cccc(OCC(F)(F)F)n2)nc2ncc(NS(C)(=O)=O)nc21 [Example 55, N-(1-(2,6-dimethoxyphenyl)-2-(6-(trifluoroethoxy)pyridin-2-yl)-1H-imidazo[4,5-b]pyrazin-6-yl)methanesulfonamide]
